Experiments:
HeLa = assay: Cytotoxicity against human HeLa cells by MTT assay; format: functional, cell-based
A549 = assay: Cytotoxicity against human A549 cells by MTT assay; format: functional, cell-based
MCF7 = assay: Cytotoxicity against human MCF7 cells by MTT assay; format: functional, cell-based
K562 = assay: Cytotoxicity against human K562 cells by MTT assay; format: functional, cell-based
HCT-116 = assay: Cytotoxicity against human HCT116 cells by MTT assay; format: functional, cell-based
[1] = Cytotoxicity against human U87 cells by MTT assay; format: functional, cell-based, U-87MG ATCC; conditions: U-87 MG
HepG2 = assay: Cytotoxicity against human HepG2 cells by MTT assay; format: functional, cell-based
[2] = Cytotoxicity against human HL-7702 by MTT assay; conditions: L02
H9c2 = assay: Cytotoxicity against rat H9c2 cells by MTT assay; format: cell-based

Question: What does the source list for `C[C@@H]1CC[C@@]2(NC1)O[C@H]1C[C@H]3[C@@H]4CC=C5C[C@@H](O[C@@H]6O[C@H](CO)[C@@H](O[C@@H]7O[C@@H](C)[C@H](O)[C@@H](O)[C@H]7O)[C@H](O)[C@H]6O[C@@H]6O[C@@H](C)[C@H](O)[C@@H](O)[C@H]6O)CC[C@]5(C)[C@H]4CC[C@]3(C)[C@H]1[C@@H]2C` [SOLAMARGINE]?
Answer: IC50 (HeLa): 6 µM; IC50 (A549): 8 µM; IC50 (MCF7): 2.1 µM; IC50 (K562): 5.2 µM; IC50 (HCT-116): 3.8 µM; IC50 [1]: 3.2 µM; IC50 (HepG2): 2.5 µM; IC50 [2]: 13.5 µM; IC50 (H9c2): > 20 µM

Source: ChEMBL document CHEMBL1770129, “Total synthesis of solamargine” (Bioorg Med Chem Lett, 2011)
